Experiments:
Type in all cases: in vivo
Tetranychus urticae = assay: Example B10: Tetranychus urticae, sprayed bean leaf discs; conditions: foliar, 192 h, application rate 200 ppm, mixed population (mobile stages), 8 days after infestation
Method: Bean leaf discs on agar in 24-well microtiter plates were sprayed with aqueous test solutions prepared from 10,000 ppm DMSO stock solutions. After drying the leaf discs were infested with a mite population of mixed ages. The samples were assessed for mortality on mixed population (mobile stages) 8 days after infestation.

Spodoptera littoralis = assay: Example B1: Spodoptera littoralis, sprayed cotton leaf discs; conditions: foliar, 72 h, application rate 200 ppm, L1 larvae, 3 days after infestation
Method: Cotton leaf discs were placed onto agar in 24-well microtiter plates and sprayed with aqueous test solutions prepared from 10′000 ppm DMSO stock solutions. After drying the leaf discs were infested with five L1 larvae. The samples were assessed for mortality, anti-feeding effect, and growth inhibition in comparison to untreated samples 3 days after infestation. Control of Spodoptera littoralis by a test sample is given when at least one of the categories mortality, anti-feedant effect, and growth inhibition is higher than the untreated sample.

Plutella xylostella = assay: Example B3: Plutella xylostella, artificial diet; conditions: 120 h, application rate 200 ppm, L2 larvae, 5 days after infestation, read-out: effect in at least one of the two categories (mortality or growth inhibition)
Method: (§1) 24-well microtiter plates with artificial diet were treated with aqueous test solutions prepared from 10,000 ppm DMSO stock solutions by pipetting. After drying, the plates were infested with L2 larvae (10 to 15 per well). The samples were assessed for mortality and growth inhibition in comparison to untreated samples 5 days after infestation.

Diabrotica balteata = assay: Example B4: Diabrotica balteata, sprayed maize sprouts; conditions: 96 h, application rate 200 ppm, L2 larvae, 4 days after infestation, read-out: effect in at least one of the two categories (mortality or growth inhibition)
Method: as §1, with “Maize sprouts placed onto an agar layer in 24-well” for “24-well”, “plates” for “plates with artificial diet”, “spraying.” for “pipetting.”, “(6” for “(10”, “10” for “15”, “4” for “5”

Myzus persicae [1] = assay: Example B5: Myzus persicae feeding/contact, sprayed sunflower leaf discs; conditions: foliar; for mortality at 200 ppm: Myzus persicae, 144 h, application rate 200 ppm, mixed ages, 6 days after infestation; for mortality at 12.5 ppm: Myzus persicae (B5), concentration 12.5 ppm
Method: Sunflower leaf discs were placed onto agar in a 24-well microtiter plate and sprayed with aqueous test solutions prepared from 10,000 ppm DMSO stock solutions. After drying, the leaf discs were infested with an aphid population of mixed ages. The samples were assessed for mortality 6 days after infestation.

Euschistus heros = assay: Example B8: Euschistus heros, sprayed soybean leaves; conditions: for percent effect (mortality or growth inhibition) at 200 ppm: Euschistus heros, 120 h, application rate 200 ppm, N2 nymphs, 5 days after infestation, read-out: effect in at least one of the two categories (mortality or growth inhibition); for mortality at 0.8 ppm: Euschistus heros (B8), concentration 0.8 ppm
Method: Soybean leaves on agar in 24-well microtiter plates were sprayed with aqueous test solutions prepared from 10,000 ppm DMSO stock solutions. After drying the leaves were infested with N2 nymphs. The samples were assessed for mortality and growth inhibition in comparison to untreated samples 5 days after infestation.

Bemisia tabaci = assay: Example B7: Bemisia tabaci, sprayed cotton leaf discs; conditions: foliar, 144 h, application rate 200 ppm, adult white flies, 6 days after incubation
Method: Cotton leaf discs were placed on agar in 24-well microtiter plates and sprayed with aqueous test solutions prepared from 10,000 ppm DMSO stock solutions. After drying the leaf discs were infested with adult white flies. The samples were checked for mortality 6 days after incubation.

[2] = system: Frankliniella occidentalis; assay: Example B11: Frankliniella occidentalis, sprayed sunflower leaf discs; conditions: foliar, 168 h, application rate 200 ppm, mixed ages, 7 days after infestation
Method: Sunflower leaf discs were placed on agar in 24-well microtiter plates and sprayed with aqueous test solutions prepared from 10,000 DMSO stock solutions. After drying the leaf discs were infested with a Frankliniella population of mixed ages. The samples were assessed for mortality 7 days after infestation.

Myzus persicae [3] = assay: Example B6: Myzus persicae systemic, pea seedling roots in test solution; conditions: for mortality at 6 ppm: Myzus persicae (B6), concentration 6 ppm; for mortality at 24 ppm: Myzus persicae, 144 h, test rate 24 ppm, mixed ages, 6 days
Method: Roots of pea seedlings infested with an aphid population of mixed ages were placed directly into aqueous test solutions prepared from 10,000 DMSO stock solutions. The samples were assessed for mortality 6 days after placing seedlings into test solutions.

SMILES | mortality at 200 ppm (Tetranychus urticae) [%] | percent control (mortality, anti-feedant effect or growth inhibition) at 200 ppm (Spodoptera littoralis) [%] | percent effect (mortality or growth inhibition) at 200 ppm (Plutella xylostella) [%] | percent effect (mortality or growth inhibition) at 200 ppm (Diabrotica balteata) [%] | mortality at 200 ppm (Myzus persicae [1]) [%] | percent effect (mortality or growth inhibition) at 200 ppm (Euschistus heros) [%] | mortality at 200 ppm (Bemisia tabaci) [%] | mortality at 200 ppm [2] [%] | mortality at 6 ppm (Myzus persicae [3]) [%] | mortality at 0.8 ppm (Euschistus heros) [%] | mortality at 12.5 ppm (Myzus persicae [1]) [%] | mortality at 24 ppm (Myzus persicae [3]) [%]
CCS(=O)(=O)c1cc(C(C)(C)C#N)cnc1-c1cn2ccc(C(F)(F)F)cc2n1 [Compound P9, 2-[5-ethylsulfonyl-6-[7-(trifluoromethyl)imidazo[1,2-a]pyridin-2-yl]-3-pyridyl]-2-methyl-propanenitrile] | ≥ 80 | ≥ 80 | ≥ 80 | ≥ 80 | ≥ 80 |  |  |  |  |  |  | 
CCS(=O)(=O)c1cc(C(C)(C)C#N)cnc1-c1cn2cnc(SC(F)F)cc2n1 [Compound P14, 2-[6-[7-(difluoromethylsulfanyl)imidazo[1,2-c]pyrimidin-2-yl]-5-ethylsulfonyl-3-pyridyl]-2-methyl-propanenitrile] |  | ≥ 80 | ≥ 80 | ≥ 80 | ≥ 80 | ≥ 80 | ≥ 80 |  |  |  |  | 
CCn1c(C(F)(F)F)cc2nc(-c3ccc(C(C)(C)C#N)cc3S(=O)(=O)CC)n(C)c2c1=O [Compound P13, 2-[4-[5-ethyl-3-methyl-4-oxo-6-(trifluoromethyl)imidazo[4,5-c]pyridin-2-yl]-3-ethylsulfonyl-phenyl]-2-methyl-propanenitrile] |  | ≥ 80 | ≥ 80 | ≥ 80 |  |  | ≥ 80 |  |  |  |  | 
CCS(=O)(=O)c1cc(C(C)(C)C#N)cnc1-c1cn2ccc(SC(F)F)cc2n1 [Compound P5, 2-[6-[7-(difluoromethylsulfanyl)imidazo[1,2-a]pyridin-2-yl]-5-ethylsulfonyl-3-pyridyl]-2-methyl-propanenitrile] |  | ≥ 80 |  | ≥ 80 | ≥ 80 |  | ≥ 80 |  |  |  |  | 
CCS(=O)(=O)c1cc(C(C)(C)C#N)cnc1-c1cn2ccc(SC(F)(F)F)cc2n1 [Compound P7, 2-[5-ethylsulfonyl-6-[7-(trifluoromethylsulfanyl)imidazo[1,2-a]pyridin-2-yl]-3-pyridyl]-2-methyl-propanenitrile] |  | ≥ 80 | ≥ 80 | ≥ 80 | ≥ 80 |  | ≥ 80 | ≥ 80 |  |  |  | 
CCS(=O)(=O)c1cc(C(C)(C)C#N)cnc1-n1cc2cnc(C(F)(F)F)cc2n1 [Compound P2, 2-[5-ethylsulfonyl-6-[6-(trifluoromethyl)pyrazolo[4,3-c]pyridin-2-yl]-3-pyridyl]-2-methyl-propanenitrile] |  | ≥ 80 | ≥ 80 | ≥ 80 | ≥ 80 | ≥ 80 | ≥ 80 |  |  |  |  | 
CCSc1cc(C(C)(C)C#N)cnc1-c1nc2cc(C(F)(F)F)n(C3CC3)c(=O)c2n1C [Compound P18, 2-[6-[5-cyclopropyl-3-methyl-4-oxo-6-(trifluoromethyl)imidazo[4,5-c]pyridin-2-yl]-5-ethylsulfanyl-3-pyridyl]-2-methyl-propanenitrile] | ≥ 80 | ≥ 80 | ≥ 80 | ≥ 80 | ≥ 80 |  |  |  |  |  |  | 
CCS(=O)(=O)c1cc(C2(C#N)CC2)cnc1-c1cn2cnc(C(F)(F)F)cc2n1 [reference compound] |  |  |  |  |  |  |  |  | 0 | 0 | 0 | 
CCS(=O)(=O)c1cc(C(C)(C)C#N)cnc1-c1cn2cnc(S(=O)(=O)C(F)F)cc2n1 [Compound P15, 2-[6-[7-(difluoromethylsulfonyl)imidazo[1,2-c]pyrimidin-2-yl]-5-ethylsulfonyl-3-pyridyl]-2-methyl-propanenitrile] |  |  | ≥ 80 |  | ≥ 80 |  |  |  |  |  |  | ≥ 80
CCS(=O)(=O)c1cc(C(C)(C)C#N)ccc1-c1cn2cnc(C(F)(F)F)cc2n1 [Compound P20, 2-[3-ethylsulfonyl-4-[7-(trifluoromethyl)imidazo[1,2-c]pyrimidin-2-yl]phenyl]-2-methyl-propanenitrile] |  |  | ≥ 80 | ≥ 80 | ≥ 80 |  | ≥ 80 |  |  |  |  | 
CCS(=O)(=O)c1cc(C(C)(C)C#N)cnc1-c1cn2ncc(C(F)(F)F)cc2n1 [Compound P8, 2-[5-ethylsulfonyl-6-[7-(trifluoromethyl)imidazo[1,2-b]pyridazin-2-yl]-3-pyridyl]-2-methyl-propanenitrile] |  | ≥ 80 | ≥ 80 | ≥ 80 | ≥ 80 | ≥ 80 | ≥ 80 |  |  |  |  | ≥ 80
CCS(=O)(=O)c1cc(C(C)(C)C#N)ccc1-c1cn2ccc(C(F)(F)F)cc2n1 [Compound P19, 2-[3-ethylsulfonyl-4-[7-(trifluoromethyl)imidazo[1,2-a]pyridin-2-yl]phenyl]-2-methyl-propanenitrile] |  | ≥ 80 | ≥ 80 | ≥ 80 |  |  | ≥ 80 |  |  |  |  | 
CCS(=O)(=O)c1cc(C(C)(C)C#N)cnc1-c1cn2cnc([S+]([O-])C(F)F)cc2n1 (stereo not drawn) [Compound P16, 2-[6-[7-(difluoromethylsulfinyl)imidazo[1,2-c]pyrimidin-2-yl]-5-ethylsulfonyl-3-pyridyl]-2-methyl-propanenitrile] |  |  | ≥ 80 |  | ≥ 80 |  |  |  |  |  |  | ≥ 80
CCS(=O)(=O)c1cc(C(C)(C)C#N)cnc1-c1cn2cnc(C(F)(F)F)cc2n1 [Compound P1, 2-[5-ethylsulfonyl-6-[7-(trifluoromethyl)imidazo[1,2-c]pyrimidin-2-yl]-3-pyridyl]-2-methyl-propanenitrile] | ≥ 80 | ≥ 80 | ≥ 80 | ≥ 80 | ≥ 80 | ≥ 80 | ≥ 80 |  | 100 | 100 | 100 | ≥ 80
CCSc1cc(C(C)(C)C#N)cnc1-c1nc2cc(C(F)(F)F)n(CC(F)(F)F)c(=O)c2n1C [Compound P10, 2-[5-ethylsulfanyl-6-[3-methyl-4-oxo-5-(2,2,2-trifluoroethyl)-6-(trifluoromethyl)imidazo[4,5-c]pyridin-2-yl]-3-pyridyl]-2-methyl-propanenitrile] |  |  | ≥ 80 | ≥ 80 | ≥ 80 |  | ≥ 80 |  |  |  |  | 

— patent publication US11413291B2, “Pesticidally active heterocyclic derivatives with sulfur containing substituents” (SYNGENTA PARTICIPATIONS AG, priority 2017, dated 2022)
